According to PubChem BioAssay AID1117337 (Cheminformatics & Chemogenomics Research Group (CCRG), …, 2015):
The source made the active and inactive calls. No rule for the calls is given here.

Test system: ADSC/ECFC co-culture, VEGF-stimulated, CD31 tube area
Test: inhibition of endothelial tube formation, dose response, imaging, VEGF stimulation, CD31 staining, tube area, IC50 (AID 1117337)

Row | Compound | IC50
1 | O=C1CC(c2ccc(Cl)cc2)CC(=O)N1 | > 10 µM (inactive)
2 | O=[N+]([O-])C(Br)(CO)CO | > 10 µM (inactive)
3 | CCCCN(CCCC)CCC(O)c1cc2c(Cl)cc(Cl)cc2c2cc(C(F)(F)F)ccc12 (stereo not drawn) | > 10 µM (inactive)
4 | CCN(CC)CCNC(=O)c1c(C)[nH]c(/C=C2\C(=O)Nc3ccc(F)cc32)c1C | 0.0254 µM
5 | CC(=O)Oc1ccccc1C(=O)Nc1ncc([N+](=O)[O-])s1 | 2.06 µM
6 | COc1cccc2c1C(=O)c1c(O)c3c(c(O)c1C2=O)C[C@@](O)(C(=O)CO)C[C@@H]3O[C@H]1C[C@H](N)[C@H](O[C@@H]2CCCCO2)[C@H](C)O1 | 0.0063 µM
7 | O=C1NC2CCCCN2C12CCN(CCCN1c3ccccc3CCc3ccc(Cl)cc31)CC2 (stereo not drawn) | > 10 µM (inactive)
8 | COC(=O)C(Cl)C(=O)OC | > 10 µM (inactive)
9 | Cc1cc(-c2ccc(N=Nc3c(S(=O)(=O)O)cc4cc(S(=O)(=O)O)cc(N)c4c3O)c(C)c2)ccc1N=Nc1c(S(=O)(=O)O)cc2cc(S(=O)(=O)O)cc(N)c2c1O | > 10 µM (inactive)
10 | O=C1C(I)=CC(=C(c2cc(I)c(O)c(I)c2)c2ccccc2C(=O)O)C=C1I | > 10 µM (inactive)
11 | COc1ccc(CCN2CCC(Nc3nc4ccccc4n3Cc3ccc(F)cc3)CC2)cc1 | > 10 µM (inactive)
12 | Cc1ccc2nc(N)[nH]c(=O)c2c1Sc1ccncc1 | 7.37 µM (inactive)
13 | CCCOC(=O)c1cc(O)c(O)c(O)c1 | > 10 µM (inactive)
14 | ClC1=C(Cl)C2(Cl)C(CBr)CC1(Cl)C2(Cl)Cl (stereo not drawn) | > 10 µM (inactive)
15 | COc1cc([C@@H]2c3cc4c(cc3[C@@H](O[C@@H]3O[C@@H]5CO[C@@H](C)O[C@@H]5[C@H](O)[C@@H]3O)[C@H]3COC(=O)[C@H]23)OCO4)cc(OC)c1O | 0.109 µM
16 | O[C@@H](c1cc(C(F)(F)F)nc2c(C(F)(F)F)cccc12)[C@H]1CCCCN1 | > 10 µM (inactive)
17 | O=C(NOCC1CC1)c1ccc(F)c(F)c1Nc1ccc(I)cc1Cl | 0.368 µM
18 | C=CCN1CC[C@]23CCCC[C@H]2[C@H]1Cc1ccc(O)cc13 | > 10 µM (inactive)
19 | CC=CC1C(C(=O)OCc2c(F)c(F)c(COC)c(F)c2F)C1(C)C (stereo not drawn) | > 10 µM (inactive)
20 | O=c1[nH]cc(F)c(=O)[nH]1 | > 10 µM (inactive)
21 | COC(=O)C1=C(C)NC(C)=C(C(=O)OCCN2CCN(C(c3ccccc3)c3ccccc3)CC2)C1c1cccc([N+](=O)[O-])c1 (stereo not drawn) | > 10 µM (inactive)
22 | Cc1ccccc1C(=O)Nc1ccc(C(=O)N2CCCC(N(C)C)c3ccccc32)cc1 (stereo not drawn) | > 10 µM (inactive)
23 | Cc1cc(=O)c2c(O)c3c(O)cc(=O)c4c3c3c(cc(O)c1c23)C(C)(C)C=4O | 0.101 µM
24 | CCCn1cnc2c1c(=O)n(CCCCC(C)=O)c(=O)n2C | > 10 µM (inactive)

Row | Compound | IC50
25 | CC1=C(/C=C/C(C)=C/C=C/C(C)=C/C(=O)Nc2ccc(O)cc2)C(C)(C)CCC1 | 1.34 µM
26 | CCC1Nc2cc(Cl)c(S(N)(=O)=O)cc2S(=O)(=O)N1 (stereo not drawn) | > 10 µM (inactive)
27 | O=C1C2CC=CCC2C(=O)N1SC(Cl)(Cl)Cl (stereo not drawn) | > 10 µM (inactive)
28 | Cc1ccc(O)cc1 | > 10 µM (inactive)
29 | COC(=O)Nc1nc2ccc(C(=O)C3CC3)cc2[nH]1 | 1.19 µM
30 | COc1cc([C@@H]2c3cc4c(cc3[C@H](O)[C@H]3COC(=O)[C@H]23)OCO4)cc(OC)c1OC | 0.0081 µM
31 | COC(=O)C1=C(C)NC(C)=C(C(=O)O[C@@H]2CCCN(Cc3ccccc3)C2)[C@@H]1c1cccc([N+](=O)[O-])c1 | > 10 µM (inactive)
32 | CCN(CC)CCNc1ccc(CO)c2sc3ccccc3c(=O)c12 | 8.35 µM (inactive)
33 | CCN(CC)C(=O)c1cccnc1 | > 10 µM (inactive)
34 | CC(C)(C)c1ccc(C(O)CCCN2CCC(C(O)(c3ccccc3)c3ccccc3)CC2)cc1 (stereo not drawn) | 3.25 µM
35 | CCC(C)n1ncn(-c2ccc(N3CCN(c4ccc(OC[C@H]5CO[C@](Cn6cncn6)(c6ccc(Cl)cc6Cl)O5)cc4)CC3)cc2)c1=O (stereo partly drawn) | 1.55 µM
36 | Nc1nc(=S)c2[nH]cnc2[nH]1 | 0.622 µM
37 | CC1CCC(C(C)C)C(OC(=O)c2ccccc2O)C1 (stereo not drawn) | > 10 µM (inactive)
38 | CCCCCN=C(N)N/N=C/c1c[nH]c2ccc(OC)cc12 | 3.13 µM
39 | CCOC(=O)C1=C(C)NC(C)=C(C(=O)OCC)C1c1ccccc1/C=C/C(=O)OC(C)(C)C | > 10 µM (inactive)
40 | Cc1c(C)c2c(c(C)c1O)CCC(C)(COc1ccc(CC3SC(=O)NC3=O)cc1)O2 (stereo not drawn) | 5.14 µM (inactive)
41 | C=C(C)[C@H]1Cc2c(ccc3c2O[C@@H]2COc4cc(OC)c(OC)cc4[C@@H]2C3=O)O1 | 0.0257 µM
42 | Cc1onc(-c2c(Cl)cccc2Cl)c1C(=O)Cl | > 10 µM (inactive)
43 | CCC1=C[C@@H]2CN(C1)Cc1c([nH]c3ccccc13)[C@@](C(=O)OC)(c1cc3c(cc1OC)N(C)[C@H]1[C@@](O)(C(=O)OC)[C@H](OC(C)=O)[C@]4(CC)C=CCN5CC[C@]31[C@@H]54)C2 | 0.0055 µM
44 | CCCCCCCCCCCCCCNCCO | > 10 µM (inactive)
45 | CN(C)CCCN1c2ccccc2Sc2ccc(Cl)cc21 | > 10 µM (inactive)
46 | CC(=O)N(CC(O)CN(C(C)=O)c1c(I)c(C(=O)NCC(O)CO)c(I)c(C(=O)NCC(O)CO)c1I)c1c(I)c(C(=O)NCC(O)CO)c(I)c(C(=O)NCC(O)CO)c1I (stereo not drawn) | > 10 µM (inactive)
47 | Oc1ccc(Cl)cc1Sc1cc(Cl)ccc1O | 3.53 µM
48 | O=c1c(-c2ccccc2)c1-c1ccccc1 | 3.84 µM

Row | Compound | IC50
49 | CCc1oc2ccccc2c1C(=O)c1cc(I)c(O)c(I)c1 | 5.85 µM (inactive)
50 | CCN[C@@H](C)Cc1cccc(C(F)(F)F)c1 | > 10 µM (inactive)
51 | COc1ccc2c(c1)c1c3n2CCN(C)C3=NCC1 | > 10 µM (inactive)
52 | Cn1ccc2cc3c(cc21)CCN3C(=O)Nc1cccnc1 | > 10 µM (inactive)
53 | Nc1nc(=O)n([C@@H]2O[C@H](CO)[C@@H](O)[C@@H]2F)cc1I | 3.47 µM
54 | CC(=O)Oc1cccc2c1C(=O)c1c(OC(C)=O)cc(C(=O)O)cc1C2=O | > 10 µM (inactive)
55 | NCCNc1ccc(NCCN)c2c1C(=O)c1ccncc1C2=O | 0.0465 µM
56 | CCCCC1C(=O)N(c2ccccc2)N(c2ccc(O)cc2)C1=O (stereo not drawn) | 3.29 µM
57 | CCc1oc2ccccc2c1C(=O)c1cc(Br)c(O)c(Br)c1 | > 10 µM (inactive)
58 | CCCCCCCCCCCCCC[N+](C)(C)Cc1ccccc1 | 3.01 µM
59 | CC(=O)[O][Hg][c]1ccccc1 | 0.53 µM
60 | CCCCCCCCOc1ccccc1C(=O)Nc1ccc(C(=O)OCC[N+](C)(CC)CC)cc1 | > 10 µM (inactive)
61 | O[C@@H](CNC[C@H](O)[C@H]1CCc2cc(F)ccc2O1)[C@@H]1CCc2cc(F)ccc2O1 | > 10 µM (inactive)
62 | CCCCCCCCCCC[C@@H](C[C@@H]1OC(=O)[C@H]1CCCCCC)OC(=O)[C@H](CC(C)C)NC=O | > 10 µM (inactive)
63 | O=C(O)C1CCC1 | > 10 µM (inactive)
64 | CC(=O)c1ccc(OCC(=O)N2CCCCC2)cc1 | > 10 µM (inactive)
65 | CCC(C(=O)OCCOCCN(CC)CC)c1ccccc1 (stereo not drawn) | > 10 µM (inactive)
66 | CC(C(O)c1ccccc1)N(C)C/C=C/c1ccccc1 (stereo not drawn) | > 10 µM (inactive)
67 | Clc1ccc(CO/N=C(\Cn2ccnc2)c2ccc(Cl)cc2Cl)c(Cl)c1 | > 10 µM (inactive)
68 | Cc1cccc(C)c1NC(=O)CC12CCCN1CCC2 | > 10 µM (inactive)
69 | C[C@@H](O[C@H]1OCCN(Cc2n[nH]c(=O)[nH]2)[C@H]1c1ccc(F)cc1)c1cc(C(F)(F)F)cc(C(F)(F)F)c1 | 6.89 µM (inactive)
70 | CC(C)=CCCC(C)=CCCC(C)=CCCC=C(C)CCC=C(C)CCC=C(C)C | > 10 µM (inactive)
71 | Oc1cc(Cl)ccc1Oc1ccc(Cl)cc1Cl | > 10 µM (inactive)
72 | C[C@H]1O[C@@H](O[C@H]2CC[C@@]3(C)[C@H](CC[C@@H]4[C@@H]3C[C@@H](O)[C@]3(C)[C@@H](C5=CC(=O)OC5)CC[C@]43O)C2)C[C@H](O)[C@@H]1O[C@H]1C[C@H](O)[C@H](O[C@H]2C[C@H](O)[C@H](O[C@@H]3O[C@H](CO)[C@@H](O)[C@H](O)[C@H]3O)[C@@H](C)O2)[C@@H](C)O1 | 0.0614 µM

Row | Compound | IC50
73 | CCCCCCCCCCCC[N+](C)(C)Cc1ccccc1 | > 10 µM (inactive)
74 | O=c1[nH]c(=O)n([C@H]2C[C@H](O)[C@@H](CO)O2)cc1Br | 3.85 µM
75 | COC1=C(OC)C(=O)C(CCCCCCCCCCO)=C(C)C1=O | > 10 µM (inactive)
76 | O=C(CCN1CCC(c2ccccc2)C1)c1ccc2c(c1)OCCO2 (stereo not drawn) | > 10 µM (inactive)
77 | CC[C@]12CCCN3CCc4c(n(c5ccccc45)C(=O)C1)[C@@H]32 | > 10 µM (inactive)
78 | CO[C@@H]1[C@@H](OC)[C@H](C)[C@@](O)(CC(=O)O)O[C@H]1[C@H](C)[C@H]1O[C@@]2(CC[C@@](C)([C@H]3CC[C@@](C)([C@@H]4O[C@@H]([C@H]5O[C@](C)(O)[C@H](C)C[C@@H]5C)C[C@@H]4OC4C[C@H](OC)[C@@H](OC)[C@H](C)O4)O3)O2)C[C@H](O)[C@H]1C (stereo partly drawn) | 0.252 µM
79 | CCCCCCCC(=O)OCC(COC(=O)CCCCCCC)OC(=O)CCCCCCC | > 10 µM (inactive)
80 | COc1cc2nc(N3CCN(C(=O)C4COc5ccccc5O4)CC3)nc(N)c2cc1OC (stereo not drawn) | > 10 µM (inactive)
81 | Oc1ccc(Cl)cc1Cc1cc(Cl)ccc1O | 2.32 µM
82 | O=C(O)c1ccc2[nH]cc(CCCCN3CC=C(c4ccccc4)CC3)c2c1 | > 10 µM (inactive)
83 | COC(=O)Nc1nc2ccc(S(=O)c3ccccc3)cc2[nH]1 (stereo not drawn) | 0.288 µM
84 | CCCCc1ccc2nc(NC(=O)OC)[nH]c2c1 | 0.053 µM
85 | COc1ccc(-c2ccc3cc(C(=O)O)ccc3c2)cc1C12CC3CC(CC(C3)C1)C2 | 0.524 µM
86 | Cc1nc(Nc2ncc(C(=O)Nc3c(C)cccc3Cl)s2)cc(N2CCN(CCO)CC2)n1 | > 10 µM (inactive)
87 | O=C1C(=O)c2ccccc2C(O)=C1C1CCC(c2ccc(Cl)cc2)CC1 (stereo not drawn) | 5.18 µM (inactive)
88 | Oc1c(Cl)cc(Cl)c2cccnc12 | 2 µM
89 | CCOC(=O)c1ccccc1C(=O)OCC | > 10 µM (inactive)
90 | CO[C@@]12[C@H](COC(N)=O)C3=C(C(=O)C(C)=C(N)C3=O)N1C[C@@H]1N[C@@H]12 | 0.102 µM
91 | Cc1ccc2c(Br)cc(Br)c(O)c2n1 | > 10 µM (inactive)
92 | CC(C)C[C@H](NC(=O)[C@H](CCc1ccccc1)NC(=O)CN1CCOCC1)C(=O)N[C@@H](Cc1ccccc1)C(=O)N[C@@H](CC(C)C)C(=O)[C@@]1(C)CO1 | 0.0204 µM
93 | Cc1cc(N)c2ccccc2[n+]1CCCCCCCCCC[n+]1c(C)cc(N)c2ccccc21 | > 10 µM (inactive)
